Measurements reported in patent publication US12624044B2, “SMARCA degraders and uses thereof” (Kymera Therapeutics, Inc., priority 2019, dated 2026).
Structures can show the parent of a compound that is named as a salt.

Legend:
SMARCA2 [1] = biological target: T1, SMARCA2 (Homo sapiens, UniProt P51531); test: MSD SMARCA2 degradation in NCI-H1299 cell line (24 h); assay type: cell-based; parameters: HC: NCI-H1299 cells treated with DMSO; host or cells: NCI-H1299; details: for DC50: NCI-H1299 cells, read-out: SMARCA2 MSD H1299 degradation 24 h: External Abs-DC50; for Dmax: NCI-H1299, NCI-H1299 cells
Summary of the method: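 NCI-H1299 cells treated 24 h with a 3-fold, 9-point compound dilution series, then lysed in RIPA with protease inhibitor. SMARCA2 in lysate-coated MSD plates detected with rabbit anti-SMARCA2 (0.3 ug/ml) and SULFO-TAG secondary. Relative SMARCA2 level normalized between DMSO-treated H1299 cells and SMARCA2-negative A2780 cells; Dmax % binned A–D.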

SMARCA2 [2] = biological target: T1, SMARCA2; test: MSD SMARCA2 degradation in A549 cell line; assay type: cell-based; details: 24 h; for Dmax: A549, A549 cells; for DC50: A549 cells, read-out: SMARCA2 MSD A549 degradation 24 h: Average external-Abs DC50
Method: Cells were seeded into 96-well plates (A549 cells: 2×10^4 cells/well/100 ul media) abd incubated overnight. The next day, 200 nl compound were added into the intermediate plate with Echo (Labcyte 550) from source plate containing a 3-fold serial dilution from top concentration of 1 mM. The culture medium was changed with 80 ul of fresh medium and 80 ul of 2× compound solution was added into the well to make a final concentration of 1000 nM, 333.3 nM, 111.1 nM, 37.04 nM, 12.35 nM, 4.115 nM, 1.372 nM, 0.457 nM, 0.152 nM and 0 nM (DMSO). The wells were mixed and then incubated for 24 hours. The media was aspirated from the cultures and 60 ul pre-chilled PIPA lysis buffer (Boston BioProducts BP-115D) with protease/phosphatase inhibitor (Roche 05892791001/Roche 04906837001) was added into the well to lyze the cells for 20 minutes at 4° C. The MSD plate (L15XA) was coated with 40 ul cell lysate and incubated at 4° C. overnight. The next day, the plate was washed three times with TBST (CST #9997S), 150 ul/well. The MSD plates was blocked with 150 ul blocking buffer per well and shaked for 1 hr at RT, 600 rpm. The blocking buffer was 3% Blocker A (MSD, R93BA-4) in TBST. The MSD plate was washed three times with 150 ul/well of TBST and 25 ul/well of detection antibody (Rabbit anti-SMARCA2/BRM antibody, 100 μg/ml, ab223735) was added at final concentration of 1 ug/ml diluted in 1% Blocking buffer and shaken for 1 hour at RT, 600 rpm. The MSD plate was washed three times with 150 ul/well of TBST and 25 ul/well of SULFO-TAG anti-rabbit antibody (MSD, R32AB-1) was added at final concentration of 1 ug/ml diluted in 1% Blocking buffer and shaken for 1 hour at RT, 600 rpm. The MSD plate was washed three times with 150 ul/well of TBST and 150 ul/well of 2×MSD reading buffer diluted from 4× (MSD, R92TC-2) with water was added. Lastly, the MSD instrument was read.
The letter codes for the percentage of SMARCA2 degradation after 24 hours (Dmax %) include: A (>90% degradation), B (>70-90% degradation), C (50-70% degradation), and D (<50% degradation).

T1 sequence (P51531 whole entry): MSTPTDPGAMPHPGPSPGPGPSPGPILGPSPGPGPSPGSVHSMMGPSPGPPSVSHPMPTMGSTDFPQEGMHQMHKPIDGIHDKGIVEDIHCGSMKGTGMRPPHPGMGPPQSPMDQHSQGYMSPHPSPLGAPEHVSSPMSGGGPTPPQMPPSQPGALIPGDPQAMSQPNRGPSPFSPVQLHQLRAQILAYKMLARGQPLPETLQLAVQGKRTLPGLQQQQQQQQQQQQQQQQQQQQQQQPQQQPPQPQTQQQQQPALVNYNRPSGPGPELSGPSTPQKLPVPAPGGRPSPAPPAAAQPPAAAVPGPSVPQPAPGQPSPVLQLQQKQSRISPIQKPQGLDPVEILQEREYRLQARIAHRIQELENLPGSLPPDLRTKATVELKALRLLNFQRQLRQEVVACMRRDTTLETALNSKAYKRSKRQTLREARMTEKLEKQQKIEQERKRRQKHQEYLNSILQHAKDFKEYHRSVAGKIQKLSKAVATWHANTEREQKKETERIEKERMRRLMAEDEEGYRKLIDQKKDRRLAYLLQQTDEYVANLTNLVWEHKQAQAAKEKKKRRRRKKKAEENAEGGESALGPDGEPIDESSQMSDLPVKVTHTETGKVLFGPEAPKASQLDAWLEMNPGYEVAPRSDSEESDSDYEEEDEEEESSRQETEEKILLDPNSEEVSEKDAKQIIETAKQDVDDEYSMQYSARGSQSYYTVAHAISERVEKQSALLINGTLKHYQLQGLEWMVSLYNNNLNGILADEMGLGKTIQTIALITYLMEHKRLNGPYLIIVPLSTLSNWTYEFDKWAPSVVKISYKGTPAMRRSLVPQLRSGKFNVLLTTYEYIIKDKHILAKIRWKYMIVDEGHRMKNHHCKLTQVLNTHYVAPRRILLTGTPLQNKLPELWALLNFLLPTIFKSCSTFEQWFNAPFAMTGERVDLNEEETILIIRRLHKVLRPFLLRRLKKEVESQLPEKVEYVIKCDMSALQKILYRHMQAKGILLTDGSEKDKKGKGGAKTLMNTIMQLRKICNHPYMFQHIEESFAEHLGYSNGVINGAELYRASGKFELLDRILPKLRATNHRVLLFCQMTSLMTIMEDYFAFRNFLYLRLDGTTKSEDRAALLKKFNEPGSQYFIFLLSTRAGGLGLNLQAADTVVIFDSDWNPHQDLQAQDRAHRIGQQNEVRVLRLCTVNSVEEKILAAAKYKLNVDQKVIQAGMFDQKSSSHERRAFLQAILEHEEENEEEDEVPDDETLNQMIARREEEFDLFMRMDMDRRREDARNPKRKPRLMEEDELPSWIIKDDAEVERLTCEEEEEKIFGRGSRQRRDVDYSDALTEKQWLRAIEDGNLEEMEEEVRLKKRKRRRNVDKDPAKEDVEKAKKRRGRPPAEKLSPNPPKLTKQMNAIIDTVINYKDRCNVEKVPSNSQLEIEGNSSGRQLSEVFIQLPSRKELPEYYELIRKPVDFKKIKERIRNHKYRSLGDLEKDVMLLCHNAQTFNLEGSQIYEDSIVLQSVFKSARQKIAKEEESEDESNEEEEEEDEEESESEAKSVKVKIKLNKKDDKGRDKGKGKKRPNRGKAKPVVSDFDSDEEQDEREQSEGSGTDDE

SMILES | DC50 (SMARCA2 [1]) | Dmax (SMARCA2 [1]) | Dmax (SMARCA2 [2]) | DC50 (SMARCA2 [2])
Cc1ncsc1-c1ccc(CNC(=O)[C@@H]2C[C@@H](O)CN2C(=O)[C@@H](NC(=O)COCCOCCOCCOCCOCCNC(=O)c2ccc(C(C)n3cc(-c4cc(-c5ccccc5O)nnc4N)cn3)cc2)C(C)(C)C)cc1 (stereo partly shown) [I-226] | > 1 µM |  |  | 
Cc1ncsc1-c1ccc(CNC(=O)[C@@H]2C[C@@H](O)CN2C(=O)[C@@H](NC(=O)COCCOCCOCCOCCNC(=O)c2ccc(C(C)n3cc(-c4cc(-c5ccccc5O)nnc4N)cn3)cc2)C(C)(C)C)cc1 (stereo partly shown) [I-227] | > 1 µM |  |  | 
Cc1ncsc1-c1ccc(CNC(=O)[C@@H]2C[C@@H](O)CN2C(=O)[C@@H](NC(=O)COCCOCCOCCNC(=O)CCCCCCCCOc2ccc(N3C[C@H]4C[C@@H]3CN4/C=C/C(=O)c3ccccc3O)nc2)C(C)(C)C)cc1 [I-228] | > 1 µM |  |  | 
Cc1ncsc1-c1ccc(CNC(=O)[C@@H]2C[C@@H](O)CN2C(=O)[C@@H](NC(=O)COCCOCCOCCOCCOCCNC(=O)CCCCCCCCOc2ccc(N3C[C@H]4C[C@@H]3CN4/C=C/C(=O)c3ccccc3O)nc2)C(C)(C)C)cc1 [I-230] | > 1 µM |  |  | 
Cc1ncsc1-c1ccc(CNC(=O)[C@@H]2C[C@@H](O)CN2C(=O)[C@@H](NC(=O)COCCOCCOCCOCCNC(=O)CCCCCCCCOc2ccc(N3C[C@H]4C[C@@H]3CN4/C=C/C(=O)c3ccccc3O)nc2)C(C)(C)C)cc1 [I-231] | > 1 µM |  |  | 
COc1cc(C(=O)NCCCN2CCN(Cc3ccc(-c4cc(-c5ccccc5O)nnc4N)cc3)CC2)ccc1NC(=O)[C@@H]1N[C@@H](CC(C)(C)C)[C@](C#N)(c2ccc(Cl)cc2F)[C@H]1c1cccc(Cl)c1F [I-232, (2R,3S,4R,5S)—N-(4-((3-(4-(4-(3-amino-6-(2-hydroxyphenyl)pyridazin-4-yl)benzyl)piperazin-1-yl)propyl)carbamoyl)-2-methoxyphenyl)-3-(3-chloro-2-fluorophenyl)-4-(4-chloro-2-fluorophenyl)-4-cyano-5-neopentylpyrrolidine-2-carboxamide] | > 1 µM | < 50% |  | 
COc1cc(C(=O)NCCCCCCCCCCCNCc2ccc(N3CCN(c4cc(-c5ccccc5O)nnc4N)CC3)cc2)ccc1NC(=O)[C@@H]1N[C@@H](CC(C)(C)C)[C@](C#N)(c2ccc(Cl)cc2F)[C@H]1c1cccc(Cl)c1F [I-234] | > 1 µM | 50 to 70% |  | 
COc1cc(C(=O)NCCCCCNCc2ccc(N3CCN(c4cc(-c5ccccc5O)nnc4N)CC3)cc2)ccc1NC(=O)[C@@H]1N[C@@H](CC(C)(C)C)[C@](C#N)(c2ccc(Cl)cc2F)[C@H]1c1cccc(Cl)c1F [I-237] | > 1 µM | < 50% |  | 
Cn1c(=O)n(C2CCC(=O)NC2=O)c2ccc(CCCCCCCCCNCc3ccc(C#Cc4cc(NC(=O)Nc5cc(F)ncc5CO)ccn4)cc3)cc21 (stereo not shown) [I-303] |  |  | < 50% | > 1 µM
CN(CCCOCCCc1cccc2c1n(C)c(=O)n2C1CCC(=O)NC1=O)Cc1ccc(C#Cc2cc(NC(=O)Nc3cc(F)ncc3CO)ccn2)cc1 (stereo not shown) [I-304] |  |  | < 50% | > 1 µM
Cn1c(=O)n(C2CCC(=O)NC2=O)c2cccc(CN3CCC(OC4CCN(Cc5ccc(C#Cc6cc(NC(=O)Nc7cc(F)ncc7CO)ccn6)cc5)CC4)CC3)c21 (stereo not shown) [I-305] |  |  | < 50% | > 1 µM
Cn1c(=O)n(C2CCC(=O)NC2=O)c2cccc(CCCOC3CCN(Cc4ccc(C#Cc5cc(NC(=O)Nc6cc(F)ncc6CO)ccn5)cc4)CC3)c21 (stereo not shown) [I-307] |  |  | < 50% | > 1 µM
CN(Cc1ccc(C#Cc2cc(NC(=O)Nc3cc(F)ncc3CO)ccn2)cc1)CC1CCN(Cc2cccc3c2n(C)c(=O)n3C2CCC(=O)NC2=O)CC1 (stereo not shown) [I-308] |  |  | < 50% | > 1 µM
O=C1CCC(n2c(=O)oc3c(CCCOC4CCN(Cc5ccc(C#Cc6cc(NC(=O)Nc7cc(F)ncc7CO)ccn6)cc5)CC4)cccc32)C(=O)N1 (stereo not shown) [I-309] |  |  | < 50% | > 1 µM
CN(Cc1ccc(C#Cc2cc(NC(=O)Nc3cc(F)ncc3CO)ccn2)cc1)C1CCN(Cc2cccc3c2n(C)c(=O)n3C2CCC(=O)NC2=O)CC1 (stereo not shown) [I-310] |  |  | < 50% | > 1 µM
Cn1c(=O)n(C2CCC(=O)NC2=O)c2ccc(CCCOCCCCN3CCN(Cc4cccc(C#Cc5cc(NC(=O)Nc6cc(F)ncc6CO)ccn5)c4)CC3)cc21 (stereo not shown) [I-314] |  |  | < 50% | > 1 µM
Cn1c(=O)n(C2CCC(=O)NC2=O)c2cccc(CCCOC3CCN(Cc4cccc(C#Cc5cc(NC(=O)Nc6cc(F)ncc6CO)ccn5)c4)CC3)c21 (stereo not shown) [I-315] |  |  | < 50% | > 1 µM

Next, values leading:

DC50 (SMARCA2 [1]) | Dmax (SMARCA2 [1]) | Dmax (SMARCA2 [2]) | DC50 (SMARCA2 [2]) | SMILES
> 1 µM |  |  |  | Cc1ncsc1-c1ccc(CNC(=O)[C@@H]2C[C@@H](O)CN2C(=O)[C@@H](NC(=O)COCCOCCOCCOCCOCCOCCNC(=O)CCCCCCCCOc2ccc(N3C[C@H]4C[C@@H]3CN4/C=C/C(=O)c3ccccc3O)nc2)C(C)(C)C)cc1 [I-229]
> 1 µM | < 50% |  |  | COc1cc(C(=O)NCCCCCCCCCN2CCN(Cc3ccc(-c4cc(-c5ccccc5O)nnc4N)cc3)CC2)ccc1NC(=O)[C@@H]1N[C@@H](CC(C)(C)C)[C@](C#N)(c2ccc(Cl)cc2F)[C@H]1c1cccc(Cl)c1F [I-233, (2R,3S,4R,5S)—N-[4-[9-[4-[[4-[3-amino-6-(2-hydroxyphenyl)pyridazin-4-yl]phenyl]methyl]piperazin-1-yl]nonylcarbamoyl]-2-methoxy-phenyl]-3-(3-chloro-2-fluoro-phenyl)-4-(4-chloro-2-fluoro-phenyl)-4-cyano-5-(2,2-dimethylpropyl)pyrrolidine-2-carboxamide]
> 1 µM | < 50% |  |  | COc1cc(C(=O)NCCCCCCCCCNCc2ccc(N3CCN(c4cc(-c5ccccc5O)nnc4N)CC3)cc2)ccc1NC(=O)[C@@H]1N[C@@H](CC(C)(C)C)[C@](C#N)(c2ccc(Cl)cc2F)[C@H]1c1cccc(Cl)c1F [I-235]
> 1 µM | < 50% |  |  | COc1cc(C(=O)NCCCCCCCNCc2ccc(N3CCN(c4cc(-c5ccccc5O)nnc4N)CC3)cc2)ccc1NC(=O)[C@@H]1N[C@@H](CC(C)(C)C)[C@](C#N)(c2ccc(Cl)cc2F)[C@H]1c1cccc(Cl)c1F [I-236]
> 1 µM |  |  |  | COc1cc(C(=O)NCCCNCc2ccc(N3CCN(c4cc(-c5ccccc5O)nnc4N)CC3)cc2)ccc1NC(=O)[C@@H]1N[C@@H](CC(C)(C)C)[C@](C#N)(c2ccc(Cl)cc2F)[C@H]1c1cccc(Cl)c1F [I-238, (2R,3S,4R,5S)—N-(4-((3-((4-(4-(3-amino-6-(2-hydroxyphenyl)pyridazin-4-yl)piperazin-1-yl)benzyl)amino)propyl)carbamoyl)-2-methoxyphenyl)-3-(3-chloro-2-fluorophenyl)-4-(4-chloro-2-fluorophenyl)-4-cyano-5-neopentylpyrrolidine-2-carboxamide hydrochloride]
 |  | < 50% | > 1 µM | Cn1c(=O)n(C2CCC(=O)NC2=O)c2ccc(CCCCCCCCCNCc3cccc(C#Cc4cc(NC(=O)Nc5cc(F)ncc5CO)ccn4)c3)cc21 (stereo not shown) [I-302, 1-(2-((3-(((9-(1-(2,6-dioxopiperidin-3-yl)-3-methyl-2-oxo-2,3-dihydro-1H-benzo[d]imidazol-5-yl)nonyl)amino)methyl)phenyl)ethynyl)pyridin-4-yl)-3-(2-fluoro-5-(hydroxymethyl)pyridin-4-yl)urea]
 |  | < 50% | > 1 µM | Cn1c(=O)n(C2CCC(=O)NC2=O)c2ccc(CCCOCCCCN3CCN(Cc4ccc(C#Cc5cc(NC(=O)Nc6cc(F)ncc6CO)ccn5)cc4)CC3)cc21 (stereo not shown) [I-306]
 |  | < 50% | > 1 µM | CN(Cc1ccc(C#Cc2cc(NC(=O)Nc3cc(F)ncc3CO)ccn2)cc1)C1CCN(C(=O)c2cccc3c2n(C)c(=O)n3C2CCC(=O)NC2=O)CC1 (stereo not shown) [I-311]
 |  | < 50% | > 1 µM | CN(CCCOCCCc1cccc2c1n(C)c(=O)n2C1CCC(=O)NC1=O)Cc1cccc(C#Cc2cc(NC(=O)Nc3cc(F)ncc3CO)ccn2)c1 (stereo not shown) [I-312]
 |  | < 50% | > 1 µM | Cn1c(=O)n(C2CCC(=O)NC2=O)c2cccc(CN3CCC(OC4CCN(Cc5cccc(C#Cc6cc(NC(=O)Nc7cc(F)ncc7CO)ccn6)c5)CC4)CC3)c21 (stereo not shown) [I-313]
 |  | < 50% | > 1 µM | CN(Cc1cccc(C#Cc2cc(NC(=O)Nc3cc(F)ncc3CO)ccn2)c1)CC1CCN(Cc2cccc3c2n(C)c(=O)n3C2CCC(=O)NC2=O)CC1 (stereo not shown) [I-316]
